Results: ChEMBL document CHEMBL3885861, “Open TG-GATES”

Organism: Rattus norvegicus
Experiment: Open TG-GATES - Regimen: Single
Type: toxicity, organism-based, Sprague-Dawley
Set-up: regimen Single, gender Male, age 6 weeks
Conditions: in vivo, po, 300 mg/kg, route gavage, dose level Middle; for APTT / Bas / Eos / Fbg / Hb / Ht / Lym / MCH / MCHC / MCV / Mono / Neu / PT / Plat / RBC / Ret / WBC: tissue Blood; for KIDNEY_L / KIDNEY_R / KIDNEY_TOTAL: tissue Kidney; for LIVER: tissue Liver; for A/G / ALP / ALT / AST / BUN / CRE / Ca / Cl / DBIL / GLC / IP / K / LDH / Na / PL / RALB / TBIL / TC / TG / TP / gamma-GTP: tissue Plasma

CN(C)[C@@H]1C(O)=C(C(N)=O)C(=O)[C@@]2(O)C(O)=C3C(=O)c4c(O)cccc4[C@@](C)(O)[C@H]3C[C@@H]12 [TETRACYCLINE]
TERMINAL_BW (3 h): 186.7 g
APTT (3 h): 16.4 s
Bas (3 h): 0%
Eos (3 h): 0.6%
Fbg (3 h): 198 mg/dL
Hb (3 h): 13.6 g/dL
Ht (3 h): 41%
Lym (3 h): 76.4%
MCH (3 h): 21.9 pg
MCHC (3 h): 33.1%
MCV (3 h): 66.2 fL
Mono (3 h): 8.4%
Neu (3 h): 14.8%
PT (3 h): 12.3 s
Plat (3 h): 97.2 x10_4/uL
RBC (3 h): 619.2 x10_4/ul
Ret (3 h): 10%
WBC (3 h): 122.2 x10_2/uL
KIDNEY_L (3 h): 0.9 g
KIDNEY_R (3 h): 0.9 g
KIDNEY_TOTAL (3 h): 1.8 g
LIVER (3 h): 9 g
A/G (3 h): 1.9
ALP (3 h): 940.2 IU/L
ALT (3 h): 42.2 IU/L
AST (3 h): 74.4 IU/L
BUN (3 h): 13.2 mg/dL
CRE (3 h): 0.5 mg/dL
Ca (3 h): 10.9 mg/dL
Cl (3 h): 104.6 meq/L
DBIL (3 h): 0.026 mg/dL
GLC (3 h): 179.6 mg/dL
IP (3 h): 11.5 mg/dL
K (3 h): 5.4 meq/L
LDH (3 h): 103 IU/L
Na (3 h): 137.2 meq/L
PL (3 h): 129.6 mg/dL
RALB (3 h): 3.6 g/dL
TBIL (3 h): 0.4 mg/dL
TC (3 h): 71.4 mg/dL
TG (3 h): 39.4 mg/dL
TP (3 h): 5.5 g/dL
gamma-GTP (3 h): 1.6 IU/L
TERMINAL_BW (6 h): 183.9 g
APTT (6 h): 17.1 s
Bas (6 h): 0%
Eos (6 h): 0.6%
Fbg (6 h): 206.8 mg/dL
Hb (6 h): 13.4 g/dL
Ht (6 h): 40.3%
Lym (6 h): 78.6%
MCH (6 h): 22.5 pg
MCHC (6 h): 33.3%
MCV (6 h): 67.7 fL
Mono (6 h): 5.6%
Neu (6 h): 15.4%
PT (6 h): 12.1 s
Plat (6 h): 103.8 x10_4/uL
RBC (6 h): 595.2 x10_4/ul
Ret (6 h): 10.1%
WBC (6 h): 91.7 x10_2/uL
KIDNEY_L (6 h): 0.9 g
KIDNEY_R (6 h): 0.9 g
KIDNEY_TOTAL (6 h): 1.7 g
LIVER (6 h): 8.3 g
A/G (6 h): 2.1
ALP (6 h): 930.4 IU/L
ALT (6 h): 36.4 IU/L
AST (6 h): 72.4 IU/L
BUN (6 h): 12.4 mg/dL
CRE (6 h): 0.4 mg/dL
Ca (6 h): 10.7 mg/dL
Cl (6 h): 106 meq/L
DBIL (6 h): 0.012 mg/dL
GLC (6 h): 193.8 mg/dL
IP (6 h): 11.1 mg/dL
K (6 h): 5.2 meq/L
LDH (6 h): 104.4 IU/L
Na (6 h): 137.2 meq/L
PL (6 h): 130.6 mg/dL
RALB (6 h): 3.6 g/dL
TBIL (6 h): 0.4 mg/dL
TC (6 h): 72.8 mg/dL
TG (6 h): 49.4 mg/dL
TP (6 h): 5.4 g/dL
gamma-GTP (6 h): 1.4 IU/L
TERMINAL_BW (9 h): 180.6 g
APTT (9 h): 16.6 s
Bas (9 h): 0%
Eos (9 h): 0.6%
Fbg (9 h): 211 mg/dL
Hb (9 h): 13.1 g/dL
Ht (9 h): 39.7%
Lym (9 h): 79.6%
MCH (9 h): 21.7 pg
MCHC (9 h): 33.1%
MCV (9 h): 65.7 fL
Mono (9 h): 7.6%
Neu (9 h): 12.4%
PT (9 h): 12.3 s
Plat (9 h): 102.2 x10_4/uL
RBC (9 h): 603.4 x10_4/ul
Ret (9 h): 9.1%
WBC (9 h): 101.6 x10_2/uL
KIDNEY_L (9 h): 0.8 g
KIDNEY_R (9 h): 0.8 g
KIDNEY_TOTAL (9 h): 1.7 g
LIVER (9 h): 7.5 g
A/G (9 h): 2.4
ALP (9 h): 849.2 IU/L
ALT (9 h): 37 IU/L
AST (9 h): 71.2 IU/L
BUN (9 h): 13.4 mg/dL
CRE (9 h): 0.4 mg/dL
Ca (9 h): 10.6 mg/dL
Cl (9 h): 106.2 meq/L
DBIL (9 h): 0.036 mg/dL
GLC (9 h): 182.8 mg/dL
IP (9 h): 10.4 mg/dL
K (9 h): 4.7 meq/L
LDH (9 h): 92.6 IU/L
Na (9 h): 138.4 meq/L
PL (9 h): 126.8 mg/dL
RALB (9 h): 3.8 g/dL
TBIL (9 h): 0.4 mg/dL
TC (9 h): 75.6 mg/dL
TG (9 h): 24.6 mg/dL
TP (9 h): 5.4 g/dL
gamma-GTP (9 h): 2.2 IU/L
TERMINAL_BW (24 h): 200.3 g
APTT (24 h): 15.9 s
Bas (24 h): 0%
Eos (24 h): 0.8%
Fbg (24 h): 202.8 mg/dL
Hb (24 h): 13 g/dL
Ht (24 h): 39.3%
Lym (24 h): 83.6%
MCH (24 h): 21.6 pg
MCHC (24 h): 33.2%
MCV (24 h): 65 fL
Mono (24 h): 8.2%
Neu (24 h): 7.4%
PT (24 h): 12.1 s
Plat (24 h): 117.3 x10_4/uL
RBC (24 h): 605 x10_4/ul
Ret (24 h): 9.9%
WBC (24 h): 102.9 x10_2/uL
KIDNEY_L (24 h): 0.9 g
KIDNEY_R (24 h): 0.9 g
KIDNEY_TOTAL (24 h): 1.9 g
LIVER (24 h): 8.5 g
A/G (24 h): 2.2
ALP (24 h): 1031.8 IU/L
ALT (24 h): 41.6 IU/L
AST (24 h): 73.8 IU/L
BUN (24 h): 18.4 mg/dL
CRE (24 h): 0.5 mg/dL
Ca (24 h): 11.3 mg/dL
Cl (24 h): 105 meq/L
DBIL (24 h): 0.016 mg/dL
GLC (24 h): 184.4 mg/dL
IP (24 h): 9.9 mg/dL
K (24 h): 5 meq/L
LDH (24 h): 96.8 IU/L
Na (24 h): 141 meq/L
PL (24 h): 149.2 mg/dL
RALB (24 h): 3.8 g/dL
TBIL (24 h): 0.4 mg/dL
TC (24 h): 80.8 mg/dL
TG (24 h): 57.2 mg/dL
TP (24 h): 5.6 g/dL
gamma-GTP (24 h): 1.4 IU/L
